Laboratory results reported in paper PMC6068344, “CPP‐E1A fusion peptides inhibit CtBP‐mediated transcriptional repression” (Molecular Oncology, 2018).
No end group written: not given here.

How the values were obtained:
CtBP1 = settings: ref Zhang et al., 2002; read-out: K d, binding to CtBP1; cited from earlier work
Excerpt: This idea is strengthened by several studies that have found a correlation between CtBP1/2 overexpression and cancer progression in multiple tumor types, including blood (Senyuk et al., 2002), skin (Deng et al., 2013), breast (Birts et al., 2010; Deng et al., 2012; Di et al., 2013), prostate (Moiola et al., 2014; Wang et al., 2012), ovarian (May et al., 2013; Zhang e ...

[1] = biological target: T1, 6xHis-CtBP1 and GST-E1A (CtBP1-E1A interaction) (Homo sapiens, UniProt Q13363); assay: AlphaScreen assay of the CtBP1-E1A interaction; format: binding; settings: AlphaScreen competition with GST-E1A; 125 nM 6xHis-CtBP1, 125 nM GST-E1A; peptide 2 μM to 200 μM; three experiments in triplicate; GraphPad Prism; read-out: IC50 (μM), disruption of the CtBP1-E1A interaction
T1 construct: 6xHis; made in house
Procedure: The AlphaScreen assay was carried out using 6xHis‐CtBP1 and GST‐E1A proteins following the manufacturer's protocol (PerkinElmer, Waltham, MA, USA) unless otherwise specified. GST‐E1A and 6xHis‐CtBP were purified as previously described (Blevins et al., 2015). To confirm inhibition by CPP‐E1A peptides, each peptide was added at varying concentrations (2 μM to 200 μM) to compete with GST‐E1A in the AlphaScreen assay containing 125 nM 6xHis‐CtBP1 and 125 nM GST‐E1A. The IC50 value of each peptide was calculated using the GRAPHPAD PRISM software (GraphPad Software, San Diego, CA, USA).

H1299 cells [2] = assay: Peptide internalization by anti-FLAG immunofluorescence in H1299 cells; format: in vitro ADME, human; settings: 20 μM peptide, 30 min, DAPI
Procedure: (§1) H1299 or A375 cells were allowed to adhere to a cover slip overnight in DMEM complete media and grown until they reached approximately 75% confluency on the cover slip surface. After a 30 min treatment with 20 μM peptides, TAT (used as a negative control), TAT‐E1A‐WT, and Pep1‐E1A‐WT, cells were fixed for 10 min using 100% methanol, and permeabilized for 1 min in 100% acetone. Each sample was stained with an anti‐FLAG antibody and detected using an Alexa Fluor 555 anti‐mouse IgG (4409S; Cell Signaling Technology, Danvers, MA, USA). DAPI staining was used to visualize the nucleus.

A375 cells = assay: Peptide internalization by anti-FLAG immunofluorescence in A375 cells; format: in vitro ADME, human; settings: for Entry into A375 cells: anti-FLAG immunofluorescence as in Figure 2 (20 μM, 30 min)
Procedure: as §1

H1299 cells [3] = assay: Subcellular fractionation and anti-FLAG western blot of the nuclear fraction; format: in vitro ADME, human; settings: 1-h treatment, anti-FLAG, two biological replicates
Procedure: For cellular fractionation, H1299 cells were treated with 42 μg·mL^−1 digitonin in NEH lysis buffer (20 mM HEPES [pH 7.4], 150 mM NaCl, 0.2 mM EDTA, 2 mM DTT, and 2 mM MgCl2) plus a protease inhibitor cocktail (Roche) for 10 min at 4 °C. The H1299 cell lysate was centrifugated at 15 000 g in a Beckman Coulter Microfuge 22R (Beckman Coulter, Brea, CA, USA) for 10 min at 4 °C to remove the cytosolic fraction. The remaining pellet was washed twice with chilled PBS before the addition of the nuclear lysis buffer (40 mM Tris/HCl [pH 7.4], 100 mM NaCl, 10% glycerol, 2 mM β‐ME, and 0.5% Triton X‐100) plus the protease inhibitor cocktail. The nuclear fraction was incubated at 4 °C for 1 h before the final centrifugation at 15 000 g for 20 min. The soluble nuclear fraction was then used for a western blot analysis to monitor peptide levels within the nuclear fraction using a FLAG antibody (LT0420; LifeTein LLC, Somerset, NJ, USA). The western blot was also probed with primary antibodies against α‐tubulin (sc‐8035; SantaCruz Biotechnology, Dallas, TX, USA) and HDAC1 (ab‐68436; Abcam, Cambridge, MA, USA) as cytoplasmic and nuclear controls, respectively, to confirm subcellular fractionation.

[4] = Peptide stability in H1299 cells (western blot, fluorescence microscopy); format: in vitro ADME, human; settings: 10 μM, 45 min, 2 h, 4 h, 8 h, western blot and FITC fluorescence microscopy
6xHis‐CtBP1 = 6xHis‐CtBP1 (UniProt Q13363); assay: AlphaScreen; settings: competition against the CtBP1-E1A interaction, peptide at 250 µM (highest concentration), IC50 printed as 'Not determined', read off a plot

Q: For `NC(=O)C1=CN([C@@H]2O[C@H](COP(=O)(O)OP(=O)(O)OC[C@H]3O[C@@H](n4cnc5c(N)ncnc54)[C@H](O)[C@@H]3O)[C@@H](O)[C@H]2O)C=CC1` [NADH, nicotinamide adenine dinucleotide], which Kd (CtBP1) is on record?
A: Its Kd is 0.1 µM.

Q: For “GSHMGRKKRRQRRRPPQLEEPGQPLDLSCKRPRDYKDDDDK [TAT-E1A-WT]”, which IC50 [1] is on record?
A: The IC50 was 5.6 ± 1.4 µM.

Q: And the “Localization to the nucleus by immunofluorescence” value (H1299 cells [2])?
A: Its value is “much lower amount in the nucleus”.

Q: And the “Entry into A375 cells” value (A375 cells)?
A: Its value is “can enter the A375 cells”.

Q: What about the “Peptide in the nuclear fraction (western blot)” value (H1299 cells [3]) of the same molecule?
A: Its value is “found in the nuclear fraction”.

Q: For “GSHMKETWWETWWTEWSQPKKKRKVLEEPGQPLDLSCKRPRDYKDDDDK [Pep1-E1A-WT]”, which IC50 [1] is on record?
A: Its IC50 is 7.1 ± 1.2 µM.

Q: What about the “Localization to the nucleus by immunofluorescence” value (H1299 cells [2]) of the same molecule?
A: The value was “significant amount of localization to the nucleus”.

Q: And the “Nuclear localization pattern in A375 cells” value (A375 cells; anti-FLAG immunofluorescence as in Figure 2)?
A: Its value is “more predominant nuclear localization pattern”.

Q: And the “Entry into A375 cells” value (A375 cells)?
A: Its value is “can enter the A375 cells”.

Q: And the “Peptide in the nuclear fraction (western blot)” value (H1299 cells [3])?
A: Its value is “found in the nuclear fraction”.

Q: And the “Peptide half-life / stability in vitro” value [4]?
A: Its value is “short half‐life”.

Q: Which response (6xHis‐CtBP1; parent: est. 5) does the source give for Pep1‐E1A‐WT L35E; S36L here?
A: Its response is 58 % Bound.

Q: For TAT‐E1A‐WT L27E; S28L, which response (6xHis‐CtBP1; parent: est. 3) is on record?
A: Its response is 80 % Bound.
